Several values for one entry are separate records, joined by “and”; a condition that tells them apart may be missing. Identical values can stand only once.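 Results reflect a 48-hour exposure of cells in 96-well plates to compound at five concentrations. GI50 = concentration required for 50% inhibition of growth. TGI marks complete inhibition of growth.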
Experiments:
Experiment in all cases: NCI tumour cell line growth inhibition, 48 h
LXFL 529 NSCLC = system: LXFL 529 NSCLC
DMS 273 small cell lung = system: DMS 273 small cell lung
M19-MEL melanoma = system: M19-MEL melanoma
XF 498 CNS = system: XF 498 CNS
SNB-78 CNS = system: SNB-78 CNS
HOP-18 NSCLC = system: HOP-18 NSCLC
KM20L2 colon = system: KM20L2 colon
DMS 114 small cell lung = system: DMS 114 small cell lung
RXF-631 renal = system: RXF-631 renal
P388/ADR leukemia = system: P388/ADR leukemia
P388 leukemia = system: P388 leukemia

SMILES | GI50 (LXFL 529 NSCLC) [µM] | TGI (LXFL 529 NSCLC) [µM] | GI50 (DMS 273 small cell lung) [µM] | TGI (DMS 273 small cell lung) [µM] | GI50 (M19-MEL melanoma) [µM] | TGI (M19-MEL melanoma) | GI50 (XF 498 CNS) [µM] | TGI (XF 498 CNS) | GI50 (SNB-78 CNS) [µM] | TGI (SNB-78 CNS) | GI50 (HOP-18 NSCLC) [µM] | TGI (HOP-18 NSCLC) [µM] | GI50 (KM20L2 colon) [µM] | TGI (KM20L2 colon) [µM] | TGI (DMS 114 small cell lung) | TGI (RXF-631 renal) [µM] | GI50 (DMS 114 small cell lung) [µM] | GI50 (RXF-631 renal) [µM] | TGI (P388/ADR leukemia) [µM] | TGI (P388 leukemia) [µM]
N[C@@H]1CCCC[C@@H]1N.O=C([O-])CN(CP(=O)([O-])[O-])CP(=O)([O-])[O-].[Pt+2] | > 100 | > 100 | > 100 | > 100 | > 100 | > 100 µM | > 100 | > 100 µM | > 100 | > 100 µM | > 100 | > 100 | > 100 | > 100 | – | – | – | – | – | –
COC(=O)/C(=C/c1ccc(OC)cc1)NC(=O)c1ccccc1 | – | > 100 | – | – | – | – | – | – | – | – | – | – | – | > 100 | > 100 µM | – | – | – | – | –
CC(CN1CCN(CC(C)Nc2ccnc3cc(Cl)ccc23)CC1)Nc1ccnc2cc(Cl)ccc12 (stereo not given) | – | 30.7 | – | 29.8 | – | 41.4 µM | – | 37.9 µM | – | 38 µM | – | – | – | 26.9 | 41 µM | 25.3 | – | – | – | –
Cn1c2ccccc2c(=O)c2c([N+](=O)[O-])ccc(NCCN)c21 | – | 21.1 | – | 16.9 | – | 26 µM | – | 28.7 µM | – | 31.3 µM | – | 26.4 | – | 24.1 | 26.4 µM | – | – | – | – | –
c1cc[c]([Sn]([S]c2cccc3cccnc23)([S]c2cccc3cccnc23)[c]2ccccc2)cc1 | 0.0782 | 0.211 | 0.293 | 0.955 | 0.216 | 0.542 µM | 0.155 | 0.407 µM | 0.224 | 0.68 µM | 0.193 | 0.481 | – | – | 0.374 µM | 0.324 | 0.164 | 0.159 | – | –
O=C(O)/C(=C\c1ccccc1Cl)S(=O)(=O)c1ccccc1 | – | > 100 | – | > 100 | – | > 100 µM | – | – | – | > 100 µM | – | > 100 | – | > 100 | > 100 µM | > 100 | – | – | – | –
BrC1=CC=C2NCCCCCCN=C3C=CC(Br)=CC=C3NCCCCCCN=C2C=C1 | – | – | – | > 25.5 | – | > 25.5 µM | – | – | – | > 25.5 µM | – | – | – | > 25.5 | > 25.5 µM | > 25.5 | – | – | – | –
CC1(C)CC(=O)C(=[N+]=[N-])C(=O)C1 | – | > 100 | – | – | – | – | – | > 100 µM | – | – | – | – | – | > 100 | > 100 µM | – | – | – | – | –
O=C1C(=O)c2ccccc2C(O)=C1CC=C(Cl)Cl | – | – | – | 75.8 | 9.49 | 25.9 µM and 93.8 µM | 12.8 | 49.2 µM and 131 µM | 11.5 | 55.7 µM and 204 µM | – | 148 | 7.04 | 200 | 51.7 µM and 70.5 µM | – | 14.5 | – | 49.9 | 54.9
Cc1ccc(NC(=O)C2C(=O)N(c3ccc(C)c(C)c3)C(=O)/C2=N\NC(N)=S)cc1C (stereo not given) | – | > 100 | – | > 100 | – | > 100 µM | – | > 100 µM | – | > 100 µM | – | – | – | > 100 | – | > 100 | – | – | – | –
CN1CCN(CCNc2ccc(CO)c3sc4ccccc4c(=O)c23)CC1 | – | 22.6 | – | 14.1 | – | 25.7 µM | – | – | – | – | – | – | – | 17.7 | 22.9 µM | – | – | – | – | –
Cc1cccc(C)c1NC(=O)CCC(=O)NC(N)=S | – | > 100 | – | – | – | > 100 µM | – | – | – | – | – | > 100 | – | > 100 | – | – | – | – | – | –
COc1cc2c([C@@H](OC(=O)c3ccccc3)c3ccc4c(c3)OCO4)nccc2c(OC)c1OC | – | > 100 | – | > 100 | – | > 100 µM | – | 90.9 µM | – | > 100 µM | – | > 100 | – | > 100 | 84.1 µM | > 100 | – | – | – | –
COc1cc(Cl)c2c3c(c(C(=O)c4ccccc4)oc13)CCC2 | – | > 100 | – | > 100 | – | > 100 µM | – | > 100 µM | – | > 100 µM | – | > 100 | – | > 100 | > 100 µM | – | – | – | – | –
CCCCCC(O)(CCCCC)CCCCCCCCC1=C(O)c2[nH]c(=O)ccc2C(=O)C1=O | – | 15.7 | – | 12.6 | – | 13.8 µM | – | 16 µM | – | 57.8 µM | – | – | – | 27.9 | 16.5 µM | 23.8 | – | – | – | –
CC1CCP(=O)(c2ccccc2)CC1 (stereo not given) | – | > 100 | – | > 100 | – | > 100 µM | – | > 100 µM | – | > 100 µM | – | – | – | > 100 | > 100 µM | > 100 | – | – | – | –
CCCCCCCCCCCC(O)=C1C(=O)CC(O)CC1=O (stereo not given) | – | > 100 | – | > 100 | – | > 100 µM | – | > 100 µM | – | > 100 µM | – | > 100 | – | > 100 | > 100 µM | > 100 | – | – | – | –
CCCCN(CCCC)C(=O)C(=O)C(C)C(=O)CC (stereo not given) | – | > 100 | – | > 100 | – | – | – | > 100 µM | – | > 100 µM | – | – | – | > 100 | – | – | – | – | – | –
COc1ccc(Cl)cc1NC(=O)c1cccc([N+](=O)[O-])c1O | – | > 100 | – | – | – | > 100 µM | – | – | – | > 100 µM | – | 8.79 | – | 89.9 | – | – | – | – | – | –
Cc1[nH]nc2c1C(=O)C=C(N(CCO)c1ccccc1)C2=O | – | > 100 | – | > 100 | – | > 100 µM | – | – | – | > 100 µM | – | > 100 | – | – | > 100 µM | – | – | – | – | –
COc1ccc(C(=O)C(C(=O)C(=O)Nc2nccs2)c2ccc(OC)cc2)cc1 (stereo not given) | – | > 100 | – | > 100 | – | – | – | > 100 µM | – | > 100 µM | – | > 100 | – | > 100 | > 100 µM | – | – | – | – | –
c1cc(-c2cn[nH]c2)cc(-c2cn[nH]c2)c1 | – | – | – | > 100 | – | > 100 µM | – | – | – | > 100 µM | – | – | – | > 100 | > 100 µM | > 100 | – | – | – | –
O=[N+]([O-])[O-].O=[N+]([O-])[O-].[Au].[Au].c1ccc([P-]c2ccccc2)cc1.c1ccc([P-]c2ccccc2)cc1 | 14.2 | 32.7 | 39.2 | > 100 | – | – | – | – | 61 | > 100 µM | 18.5 | 37.6 | 36.4 | > 100 | > 100 µM | – | 37.5 | – | – | –
